Source: patent publication US10738041B2, “Ferroportin inhibitors” (Vifor (International) AG, priority 2015, dated 2020)

Assays:
[1] = target: T1, ferroportin (Fpn) (Mus musculus, UniProt Q9JHI9); experiment: Hepcidin Internalization Assay (J774); type: cell-based; settings: average of multiple measurements; inhibition of TMR-hepcidin (25 nM) internalization into J774 cells; read-out: J774 IC50
T1 construct: host or cells: J774 mouse macrophage cell line, Fe(III)-NTA induced
T1 sequence (Q9JHI9 1-570): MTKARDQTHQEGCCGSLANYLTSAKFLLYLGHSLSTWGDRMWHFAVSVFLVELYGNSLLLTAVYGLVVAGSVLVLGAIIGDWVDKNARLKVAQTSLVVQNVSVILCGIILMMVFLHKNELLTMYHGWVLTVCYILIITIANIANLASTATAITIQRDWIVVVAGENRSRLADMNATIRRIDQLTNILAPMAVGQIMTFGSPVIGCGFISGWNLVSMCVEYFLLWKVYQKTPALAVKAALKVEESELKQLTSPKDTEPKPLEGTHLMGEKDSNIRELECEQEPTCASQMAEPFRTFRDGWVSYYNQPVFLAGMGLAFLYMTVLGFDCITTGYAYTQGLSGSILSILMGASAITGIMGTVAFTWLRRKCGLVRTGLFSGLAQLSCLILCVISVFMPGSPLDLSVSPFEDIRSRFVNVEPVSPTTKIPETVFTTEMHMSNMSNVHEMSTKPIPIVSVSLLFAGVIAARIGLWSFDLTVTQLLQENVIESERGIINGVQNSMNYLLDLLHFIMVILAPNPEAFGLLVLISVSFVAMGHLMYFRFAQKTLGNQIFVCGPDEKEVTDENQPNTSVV
Description: This cellular assay allows quantification of the binding of hepcidin to ferroportin (Fpn) through microscopic detection of internalization of a fluorescently labeled hepcidin into J774 cells. […] Binding of hepcidin to Fpn triggers internalization and degradation of both hepcidin and Fpn. However, the TMR (6-carboxytetramethylrhodamine) fluorophore attached to hepcidin remains associated with the cell after degradation of the hepcidin peptide backbone. Therefore, microscopic detection of ceH associated TMR fluorescence is a measure of hepcidin binding to Fpn and internalization of hepcidin and Fpn. If TMR-hepcidin is prevented from binding to Fpn, cellular TMR fluorescence remains low (Dürrenberger et al, 2013). The effect of small molecular weight Fpn inhibitor compounds in this assay was evaluated in vitro as described below.
J774 cells, harvested from ca. 80% confluent cultures, were plated at 8×10^5 cells/ml in complete medium (DMEM, 10% FBS, 1% Penicillin-Streptomycin) containing 200 μM Fe(III)NTA (nitrilotriacetic acid), 100 μl per well of 96 well MicroClear plates (Greiner; Cat. 655090) and grown at 37° C. with 5% CO2. After overnight incubation, cells were washed 3 times with pre-warmed DMEM w/o phenol red, 30 μl/well of DMEM w/o phenol red was added after the final wash and 10 μl/well of dilution series of test compounds were added in triplicates. […] Cells were incubated in a total volume of 50 μl at 37° C. with 5% CO2 for 2 hours, then Hoechst 33342 dye was added to a final concentration of 0.5 μg/ml to stain nuclei and further incubated for 10 min. at 37° C. with 5% CO2. Cells were washed 3 times with PBS and fixed in 100 μl of 4% paraformaldehyde in PBS for 15 min. at room temperature. After removal of the paraformaldehyde solution, cells were washed 3 times with PBS leaving 100 μl per well and the plates were sealed with foil plate seal. TMR (530-550 nm excitation/575-625 nm emission/400 ms exposure time) and Hoechst 33342 (360-370 nm excitation/420-460 nm emission/10 ms exposure time) fluorescence images were acquired using a ScanR plate imager (Olympus) with a 20× high NA objective. Four pictures were acquired per well and fluorescence channel covering ca. 1500 cells per well. The acquired image data was analysed with the ScanR image analysis software. Image analysis included detection of nuclei (Hoechst 33342 fluorescence), identification of cell-associated regions, application of a virtual channel and thresholding for rolling-ball-type background reduction, followed by application of the Sum(Mean) algorithm to measure the TMR fluorescence associated with cells as a quantitative measure for internalized TMR-hepcidin. IC50 values were calculated with the Sum(Mean) raw data using “log(inhibitor) vs. response” curve fitting of Prism 5 software (GraphPad Software Inc., version 5.02).

[2] = target: T2, human Fpn (Homo sapiens, UniProt Q9NP59); experiment: Biophysical Ferroportin-Hepcidin Binding Assay (fluorescence polarization); settings: average of multiple measurements; 1 μM human Fpn, 20 nM TMR-hepcidin; read-out: FP IC50
T2 construct: FLAG (C); made in house; host or cells: Pichia pastoris
T2 sequence (Q9NP59 1-571): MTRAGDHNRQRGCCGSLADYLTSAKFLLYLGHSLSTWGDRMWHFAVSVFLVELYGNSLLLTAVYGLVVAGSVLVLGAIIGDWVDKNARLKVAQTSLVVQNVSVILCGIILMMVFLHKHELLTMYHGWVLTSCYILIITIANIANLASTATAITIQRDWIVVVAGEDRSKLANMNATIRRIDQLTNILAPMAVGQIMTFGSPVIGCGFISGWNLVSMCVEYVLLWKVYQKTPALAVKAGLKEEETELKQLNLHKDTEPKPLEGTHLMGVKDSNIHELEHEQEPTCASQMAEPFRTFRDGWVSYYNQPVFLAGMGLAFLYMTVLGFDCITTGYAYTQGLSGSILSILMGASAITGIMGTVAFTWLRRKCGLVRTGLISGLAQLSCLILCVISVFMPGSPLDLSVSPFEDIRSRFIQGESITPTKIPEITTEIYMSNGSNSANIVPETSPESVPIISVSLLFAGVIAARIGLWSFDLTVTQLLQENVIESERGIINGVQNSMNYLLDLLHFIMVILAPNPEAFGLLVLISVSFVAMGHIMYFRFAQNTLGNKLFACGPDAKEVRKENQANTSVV
Experimental: This biophysical assay was developed to confirm inhibition of hepcidin binding to ferroportin (Fpn) more directly. Incubation of TMR-hepcidin with purified human Fpn isolated from Pichia pastoris yeast cells expressing human Fpn with a C-terminal FLAG affinity tag (Bonaccorsi di Patti, 2014) leads to increased fluorescence polarization (FP) of the TMR-hepcidin ligand. Small molecular weight Fpn inhibitors were tested for inhibition of binding of TMR-hepcidin to Fpn, as detected by dose-dependent decrease of the TMR FP signal, as described in detail below.
8 μl of serial dilutions of test compounds were added in duplicates to reach final Fpn and TMR-hepcidin concentrations of 1 μM and 20 nM, respectively. Plates were incubated for 90 minutes at room temperature and parallel (S) and perpendicular (P) fluorescence was measured in a Synergy H1 fluorescence reader (BioTek). FP values were calculated in mP according to the following formula.

| Compound | IC50 [1] | IC50 [2] |
| --- | --- | --- |
| O=C(NCc1ccccc1)c1csc(CCNCc2ccc(F)cn2)n1 [Example 6] | 12.7 µM | 48.6 µM |
| O=C(NCc1ccccc1)c1csc(CCNCc2ccccn2)n1 [Example 11] | 20.9 µM | 7.83 µM |
| O=C(NCc1cccs1)c1csc(CCNCc2nc3ccccc3[nH]2)n1 [Example 16] | 0.9 µM | 1.72 µM |
| CN(Cc1ccccc1)C(=O)c1csc(CCNCc2nc3ccccc3[nH]2)n1 [Example 17] | 6.4 µM | 3.53 µM |
| CN(C(=O)c1csc(CCNCc2nc3ccccc3[nH]2)n1)c1ccccc1 [Example 19] | 10 µM | 10.2 µM |
| O=C(NCc1ccccc1)c1csc(CCNCc2ncc[nH]2)n1 [Example 20] | 9.4 µM | 9.61 µM |
| O=C(NCc1cccc(N2CCCC2)c1)c1csc(CCNCc2nc3ccccc3[nH]2)n1 [Example 21] | 6.7 µM | 1.43 µM |
| CN(C)C(=O)c1csc(CCNCc2nc3ccccc3[nH]2)n1 [Example 22] | 17.2 µM | 14.2 µM |
| CC(C)N(C(=O)c1csc(CCNCc2nc3ccccc3[nH]2)n1)C1CCCCC1 [Example 25] | 2.2 µM | 3.93 µM |
| CC(C)(NC(=O)c1csc(CCNCc2nc3ccccc3[nH]2)n1)c1ccccc1 [Example 26] | 0.7 µM | 1.12 µM |
| Cn1c(CNCCc2nc(C(=O)NCc3ccccc3)cs2)nc2ccccc21 [Example 28] | 0.18 µM | 1.22 µM |
| O=C(NCc1ccccc1)c1csc(CCNCc2nc3cc(O)ccc3[nH]2)n1 [Example 30] | 12.9 µM | 2.33 µM |
| O=C(NCc1ccccc1)c1csc(CCNCc2nc3cc(F)ccc3[nH]2)n1 [Example 31] | 1.1 µM | 0.94 µM |
| O=C(NCc1ccccc1)c1csc(CCNCc2nc3cccnc3[nH]2)n1 [Example 33] | 3.62 µM | 17.2 µM |
| O=C(NCc1ccccc1)c1csc(CCNCc2cn3ccccc3n2)n1 [Example 34] | 0.36 µM | 4.29 µM |
| O=C(NCc1cccnc1)c1csc(CCNCc2nc3ccccc3[nH]2)n1 [Example 35] | 0.19 µM | 2.16 µM |
| O=C(NCc1ccncc1)c1csc(CCNCc2nc3ccccc3[nH]2)n1 [Example 36] | 0.25 µM | 3.65 µM |
| CN1CCOCC1CNC(=O)c1csc(CCNCc2nc3ccccc3[nH]2)n1 (centres unmarked) [Example 41] | 3.98 µM | 12 µM |
| COc1ccc(CNC(=O)c2csc(CCNCc3nc4ccccc4[nH]3)n2)nc1 [Example 45] | 0.44 µM | 2.1 µM |
| O=C(NCc1cccc(=O)[nH]1)c1csc(CCNCc2nc3ccccc3[nH]2)n1 [Example 47] | 0.72 µM | 3.42 µM |
| COc1ccc2[nH]c(CNCCc3nc(C(=O)NCc4ccccc4)cs3)nc2c1 [Example 50] | 0.41 µM | 1.48 µM |

| Compound | IC50 [1] | IC50 [2] |
| --- | --- | --- |
| NC(=O)c1ccc(CNC(=O)c2csc(CCNCc3nc4ccccc4[nH]3)n2)cn1 [Example 54] | 0.46 µM | 11.4 µM |
| O=C(NCc1nc2ccccc2[nH]1)c1csc(CCNCc2nc3ccccc3[nH]2)n1 [Example 60] | 2.39 µM | 0.974 µM |
| O=C(NCc1ccccc1)c1csc(CCNCc2nc3cc(OC(F)(F)F)ccc3[nH]2)n1 [Example 62] | 0.93 µM | 0.436 µM |
| O=C(NCc1ccccc1N1CCOCC1)c1csc(CCNCc2nc3ccccc3[nH]2)n1 [Example 63] | 0.61 µM | 0.846 µM |
| O=C(NCc1ccccc1)c1ccc(CCNCc2nc3ccccc3[nH]2)cc1 [Example 66] | 0.41 µM | 53.8 µM |
| O=C(NCc1c(F)cccc1F)c1csc(CCNCc2nc3ccccc3[nH]2)n1 [Example 69] | 0.26 µM | 1.51 µM |
| CN(C)c1ccccc1CNC(=O)c1csc(CCNCc2nc3ccccc3[nH]2)n1 [Example 70] | 0.53 µM | 1.06 µM |
| O=C(NCc1ccccc1OC(F)(F)F)c1csc(CCNCc2nc3ccccc3[nH]2)n1 [Example 72] | 1.36 µM | 0.931 µM |
| CC(NC(=O)c1csc(CCNCc2nc3ccccc3[nH]2)n1)c1ccccc1 (centres unmarked) [Example 73] | 0.37 µM | 1 µM |
| O=C(NCc1ccccc1OC(F)F)c1csc(CCNCc2nc3ccccc3[nH]2)n1 [Example 74] | 0.21 µM | 0.451 µM |
| O=C(NCCc1ccccn1)c1csc(CCNCc2nc3ccccc3[nH]2)n1 [Example 76] | 0.34 µM | 5.08 µM |
| O=C(Nc1ncccc1F)c1csc(CCNCc2nc3ccccc3[nH]2)n1 [Example 77] | 0.35 µM | 2.81 µM |
| O=C(NCCc1ccccc1)c1csc(CCNCc2nc3ccccc3[nH]2)n1 [Example 78] | 0.41 µM | 4.15 µM |
| CC(NC(=O)c1csc(CCNCc2nc3ccccc3[nH]2)n1)c1ccccn1 (centres unmarked) [Example 80] | 0.345 µM | 2.28 µM |
| O=C(NCc1ccc(C(F)(F)F)nc1)c1csc(CCNCc2nc3ccccc3[nH]2)n1 [Example 81] | 0.42 µM | 2.97 µM |
| O=C(NCc1ccc[nH]c1=O)c1csc(CCNCc2nc3ccccc3[nH]2)n1 [Example 83] | 0.096 µM | 1.05 µM |
| Cn1cc(CNC(=O)c2csc(CCNCc3nc4ccccc4[nH]3)n2)cn1 [Example 91] | 2.07 µM | 12.1 µM |
| O=C(NCc1ncc[nH]1)c1csc(CCNCc2nc3ccccc3[nH]2)n1 [Example 95] | 7.23 µM | 13 µM |
| O=C(NCc1ncccc1F)c1cnn(C2CCN(Cc3nc4ccccc4[nH]3)CC2)c1 [Example 150] | – | 73 µM |
| O=C(NCc1ncccc1F)c1cnn(CC2CCCN(Cc3nc4ccccc4[nH]3)C2)c1 (centres unmarked) [Example 153] | – | 57.8 µM |
